For data set [1], the target named is T1, Calmodulin-sensitive adenylate cyclase (Bacillus anthracis, UniProt P40136).
T1 sequence (P40136 whole entry): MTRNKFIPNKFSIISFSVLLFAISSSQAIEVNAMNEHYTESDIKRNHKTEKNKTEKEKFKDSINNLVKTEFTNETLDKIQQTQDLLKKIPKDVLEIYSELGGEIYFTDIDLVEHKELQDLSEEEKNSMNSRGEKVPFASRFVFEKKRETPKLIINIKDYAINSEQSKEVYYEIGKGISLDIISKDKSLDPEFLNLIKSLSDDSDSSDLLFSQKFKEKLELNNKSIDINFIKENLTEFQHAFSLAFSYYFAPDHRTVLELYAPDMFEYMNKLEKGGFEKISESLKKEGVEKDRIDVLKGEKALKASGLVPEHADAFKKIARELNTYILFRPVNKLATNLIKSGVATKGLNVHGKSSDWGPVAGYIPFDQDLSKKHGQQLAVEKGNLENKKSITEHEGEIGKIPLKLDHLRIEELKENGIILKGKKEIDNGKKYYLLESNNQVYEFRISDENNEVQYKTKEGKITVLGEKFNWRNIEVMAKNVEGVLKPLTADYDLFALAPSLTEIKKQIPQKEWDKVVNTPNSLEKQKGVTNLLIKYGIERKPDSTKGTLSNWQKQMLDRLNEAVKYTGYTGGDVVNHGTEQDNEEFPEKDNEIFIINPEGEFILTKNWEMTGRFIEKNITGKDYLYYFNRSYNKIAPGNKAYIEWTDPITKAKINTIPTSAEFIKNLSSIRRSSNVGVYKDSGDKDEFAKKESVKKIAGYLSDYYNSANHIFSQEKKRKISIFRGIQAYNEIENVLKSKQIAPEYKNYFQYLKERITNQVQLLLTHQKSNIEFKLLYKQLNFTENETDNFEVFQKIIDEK
The data set is classed as cell-based, RAW264.7.

Data set [2] is described as follows: Cytotoxic activity against human GenM-C01 cells after 48 hrs. The data set is classed as cell-based. The conditions noted are these: genm-c01, 48 h.
Data set [3] in a line: Genotoxicity against human GenM-T01 cells assessed as induction of GFP expression after 48 hrs by GADD45alpha-GFP assay. The data set is classed as toxicity, cell-based. As to conditions: genm-t01, 48 h.
The test system of data set [4] is Salmonella typhimurium. The data set is described as follows: Mutagenicity in Salmonella typhimurium TA98 at 0.975 ug/mL to 1000 ug/mL after 48 hrs in absence of liver S9 fraction by Ames test. The data set is classed as toxicity, organism-based. As to conditions: salmonella enterica subsp. enterica serovar typhimurium. In general terms: The Ames test detects mutagens through reverse mutation in bacteria.

Data set [5] concerns Salmonella typhimurium. Description: Mutagenicity in Salmonella typhimurium TA98 at 0.975 ug/mL to 1000 ug/mL after 48 hrs in presence of liver S9 fraction by Ames test. The data set is classed as toxicity, organism-based. The conditions noted are these: salmonella enterica subsp. enterica serovar typhimurium, s9, 48 h.
Data set [6] concerns Salmonella typhimurium. Description: Mutagenicity in Salmonella typhimurium TAMix at 0.975 ug/mL to 1000 ug/mL after 48 hrs in absence of liver S9 fraction by Ames test. The data set is classed as toxicity, organism-based. As to conditions: salmonella enterica subsp. enterica serovar typhimurium.
Data set [7] has as its system Salmonella typhimurium. Description: Mutagenicity in Salmonella typhimurium TAMix at 0.975 ug/mL to 1000 ug/mL after 48 hrs in presence of liver S9 fraction by Ames test. The data set is classed as toxicity, organism-based. As to conditions: salmonella enterica subsp. enterica serovar typhimurium, s9, 48 h.
Data set [8] is described as follows: Cytotoxic activity against human GenM-T01 cells after 24 hrs. The conditions noted are these: genm-t01, 24 h. The data set is classed as cell-based.
A short description of data set [9]: Cytotoxic activity against human GenM-T01 cells after 48 hrs. The data set is classed as cell-based. As to conditions: genm-t01, 48 h.
Data set [10] can be described thus: Genotoxicity against human GenM-T01 cells assessed as induction of GFP expression after 24 hrs by GADD45alpha-GFP assay. The data set is classed as toxicity, cell-based. As to conditions: genm-t01, 24 h.

Usually IC50 stands for the concentration needed to halve the response being measured. Read a high IC50 as a need for much substance. In data set [1], `O=C(O)c1cccc(NC(=O)c2ccccc2)c1` displayed an IC50 of over 100 µM.
Same read-out and setting: the value for `COC(=O)c1cccc(NC(=O)c2cccc(-c3ccccc3)c2)c1` was 19 µM; that for `COC(=O)c1cccc(NC(=O)c2cccc3c2C(=O)c2ccccc2-3)c1` was 11 µM; that for `Nc1ccc(NC(=O)c2cccc3c2C(=O)c2ccccc2-3)c(C(=O)O)c1` was 80 µM.
`Nc1ccc(NC(=O)c2cccc3c2C(=O)c2ccccc2-3)cc1C(=O)O` had an IC50 in data set [1] of 6.08 µM. Compared with the last molecule, the IC50 is about 13-fold lower.
In the case of `O=C(O)c1cccc(NC(=O)c2cccc3c2C(=O)c2ccccc2-3)c1Cl`, half-maximal inhibition in data set [1] (IC50) was put at 9.21 µM.
On the same count and under the same terms, the same measure for `COC(=O)c1cc(NC(=O)c2cccc3c2C(=O)c2ccccc2-3)ccc1O`: over 100 µM.
The same measure, in the same setting: the same measure for `CSc1cccc(NC(=O)c2cccc3c2C(=O)c2ccccc2-3)c1`: 26 µM; for `O=C(Nc1cccc(OC(F)(F)F)c1)c1cccc2c1C(=O)c1ccccc1-2`: 6.8 µM.
Still for that read-out and setting: the same measure for `O=C(NO)c1cccc(NC(=O)c2cccc3c2C(=O)c2ccccc2-3)c1`: 12.9 µM.
Regarding `O=C(O)c1cccc(NC(=O)c2cccc3c2C(=O)c2ccccc2-3)c1`, the MTC in [2], in data set [3], in [8], in data set [9] and in data set [10] was 62.5 µg/mL each time. Besides, the Activity result in the data set with Salmonella typhimurium [4], in the data set with Salmonella typhimurium [5], in the data set with Salmonella typhimurium [6] and with Salmonella typhimurium [7] was “Non-toxic” throughout.

The values above are taken from ChEMBL document CHEMBL2202953, “Structure-based redesign of an edema toxin inhibitor” (Bioorg Med Chem, 2012).
